In patent US20150203837A1, “FUSION PROTEIN FOR ACTIVATING RTK SIGNAL TRANSMISSION BY MEANS OF LIGHT, AND USE THEREOF” (KOREA ADVANCED INSTITUTE OF SCIENCE AND TECHNOLOGY, priority 2012, published 2015):

Biological target: T1, TrkB (Rattus norvegicus, UniProt Q63604)
T1 construct: PHR domain (1-498 a.a.) of Arabidopsis CRY2 (NM_100320); expressed in transfected cells; host or cells: HeLa; the other entry of the earlier key: CRY2 (Q96524, Cryptochrome-2)
Experiment: Light-induced calcium signaling after treatment with TrkB-specific inhibitor (R-GECO imaging)
Assay type: cell-based
Settings: 100 nM K252a; HeLa cells co-transfected with TrkB-PHR-YFP and R-GECO; 488 nm light
Source text: The present inventors observed whether sub-RTK signaling was activated by light irradiation after treating a RTK-specific inhibitor in order to confirm that only RTK-specific signaling pathways are activated by light irradiation affecting downstream pathways thereof.
The present inventors used TrkB-PHR-YFP construct prepared in the example 1-1 as an example to investigate the activation of TRK signal transduction. In addition, the present inventors used R-GECO construct (Addgene, plasmid 32444; CMV-R-GECO1) to investigate whether calcium signaling among downstream signaling pathways of RTK is activated by light irradiation. Particularly, HeLa cells were co-transfected with the TrkB-PHR-YFP construct prepared in the example 1-1 and R-GECO construct and cultured in DMEM media containing 10% FBS in the condition of 37° C. and 10% CO2. The cultivated cells were treated with 100 nM of K252a known as a TrkB-specific inhibitor and images taken with a confocal microscope before and after the irradiation with light having 488 nm of wavelength were obtained and analyzed (FIG. 6). As a result, it was observed that there is no difference in the experimental group treated with K252a. On the contrary, the calcium signaling was changed according to light irradiation in the control group.

T1 sequence (Q63604 with tags, fused parts or gaps): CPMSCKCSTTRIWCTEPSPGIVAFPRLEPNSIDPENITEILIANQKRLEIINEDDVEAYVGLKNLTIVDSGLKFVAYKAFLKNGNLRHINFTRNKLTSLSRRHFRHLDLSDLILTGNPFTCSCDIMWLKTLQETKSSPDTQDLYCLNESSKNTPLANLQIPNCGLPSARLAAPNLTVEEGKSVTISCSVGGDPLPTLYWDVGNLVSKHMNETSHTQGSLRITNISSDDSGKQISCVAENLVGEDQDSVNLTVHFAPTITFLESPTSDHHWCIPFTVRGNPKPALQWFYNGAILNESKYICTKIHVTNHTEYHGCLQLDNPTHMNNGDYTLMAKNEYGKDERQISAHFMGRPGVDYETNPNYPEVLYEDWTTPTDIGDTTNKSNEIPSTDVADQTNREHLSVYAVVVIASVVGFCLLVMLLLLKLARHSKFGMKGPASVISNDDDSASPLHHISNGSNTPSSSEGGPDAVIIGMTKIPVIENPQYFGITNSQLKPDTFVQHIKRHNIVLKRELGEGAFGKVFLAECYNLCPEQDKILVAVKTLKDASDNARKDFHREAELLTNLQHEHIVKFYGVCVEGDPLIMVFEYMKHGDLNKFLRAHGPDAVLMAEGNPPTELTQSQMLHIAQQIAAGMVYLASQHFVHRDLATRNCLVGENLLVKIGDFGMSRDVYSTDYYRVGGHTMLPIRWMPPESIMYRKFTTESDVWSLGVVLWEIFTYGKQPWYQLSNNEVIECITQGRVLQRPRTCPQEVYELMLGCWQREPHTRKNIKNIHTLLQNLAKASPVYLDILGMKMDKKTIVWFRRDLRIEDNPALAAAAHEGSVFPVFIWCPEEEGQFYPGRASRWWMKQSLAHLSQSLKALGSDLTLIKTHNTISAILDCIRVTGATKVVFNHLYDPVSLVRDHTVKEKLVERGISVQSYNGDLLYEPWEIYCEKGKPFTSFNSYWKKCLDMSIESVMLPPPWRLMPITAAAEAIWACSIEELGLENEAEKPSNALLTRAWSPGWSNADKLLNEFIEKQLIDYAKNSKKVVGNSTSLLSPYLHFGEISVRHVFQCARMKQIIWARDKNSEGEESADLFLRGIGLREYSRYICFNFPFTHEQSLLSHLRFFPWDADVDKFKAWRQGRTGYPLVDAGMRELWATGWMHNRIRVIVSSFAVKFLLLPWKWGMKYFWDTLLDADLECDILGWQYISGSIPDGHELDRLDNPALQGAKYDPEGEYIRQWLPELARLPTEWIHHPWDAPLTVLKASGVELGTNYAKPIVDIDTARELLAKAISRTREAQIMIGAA

COC(=O)[C@@]1(O)C[C@H]2O[C@]1(C)n1c3ccccc3c3c4c(c5c6ccccc6n2c5c31)C(=O)NC4 [K252a]
change of calcium signaling according to light irradiation: no difference
